According to patent US9415031B2, “D-serine transporter inhibitors as pharmaceutical compositions for the treatment of visual system disorders” (Allergan, Inc., priority 2011, dated 2016):
Entries after “also recorded” stand apart in the source; their conditions may differ. Blank lines part the entries; values can stand above or below the compound they belong to.

Tests used:
human ASCT2 = target: T1, human ASCT2 (Homo sapiens, UniProt Q15758); assay: transport into HEK cells expressing ASCT2; type: cell-based
T1 construct: expressed in transfected cells; host or cells: HEK (human embryonic kidney) cells
T1 sequence (Q15758 1-541): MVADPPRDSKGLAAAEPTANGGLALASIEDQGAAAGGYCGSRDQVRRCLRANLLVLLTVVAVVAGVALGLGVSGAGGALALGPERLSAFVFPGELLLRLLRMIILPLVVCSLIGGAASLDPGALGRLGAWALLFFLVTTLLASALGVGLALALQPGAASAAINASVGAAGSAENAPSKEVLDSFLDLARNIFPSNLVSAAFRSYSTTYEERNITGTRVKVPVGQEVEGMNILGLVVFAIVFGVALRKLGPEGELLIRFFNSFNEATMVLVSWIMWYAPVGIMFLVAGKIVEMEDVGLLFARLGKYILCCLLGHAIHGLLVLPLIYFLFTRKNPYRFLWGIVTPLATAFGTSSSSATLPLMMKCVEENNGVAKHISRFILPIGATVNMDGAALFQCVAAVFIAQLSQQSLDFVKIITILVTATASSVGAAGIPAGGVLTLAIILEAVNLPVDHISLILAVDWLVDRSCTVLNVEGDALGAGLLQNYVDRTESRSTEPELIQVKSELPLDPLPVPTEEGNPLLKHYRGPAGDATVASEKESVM
Protocol: (§1) Cell-based assays: the transport of [^3H]L- or D-serine was measured in primary cultures of rat hippocampal astrocytes or in human embryonic kidney (HEK) cells expressing ASCT transporter sub-types. For the astrocyte assays, cells were plated on either 24- or 96-well plates at a density of 50,000 cells per well. For the HEK assays, cells were plated on coated 96-well plates at a density of 80,000 cells/well. Assays were conducted in duplicate at room temperature in assay buffer consisting of: NaCl: 150 mM, KCl: 2 mM; MgCl2: 1 mM; CaCl2: 1 mM; HEPES: Tris buffer: 10 mM, pH7.4. To assess the sodium-dependence of transport, NaCl was replaced in the assay buffer by equimolar choline chloride. Following aspiration of growth medium and 2 washes with assay buffer, cells were incubated with [^3H]L- or D-serine at a final concentration of 1 μM for 5 min (astrocytes) or 1 min (HEK cells), after which the incubation medium was aspirated and the cells washed twice with ice-cold assay buffer. Cells containing radiolabel were solubilized in 100 μl of 1% Triton-X100 and an aliquot counted in a beta counter. IC50 values were determined over a range of at least 6 concentrations and derived from curve-fitting algorithms available in Graph Pad Prism 4.

astrocytes = assay: [3H]L-serine transport into astrocytes; type: cell-based, rat; settings: FIG. 6B
Protocol: as §1

ASCT1 [1] = target: T2, ASCT1 (Homo sapiens, UniProt P43007); assay: transport into HEK cells expressing ASCT1; type: cell-based; parameters: expressed in transfected cells; host or cells: HEK (human embryonic kidney) cells; settings: for selectivity towards ASCT1: inhibition of [3H]L-serine transport, HEK cells expressing ASCT1 vs ASCT2
T2 sequence (P43007 1-532): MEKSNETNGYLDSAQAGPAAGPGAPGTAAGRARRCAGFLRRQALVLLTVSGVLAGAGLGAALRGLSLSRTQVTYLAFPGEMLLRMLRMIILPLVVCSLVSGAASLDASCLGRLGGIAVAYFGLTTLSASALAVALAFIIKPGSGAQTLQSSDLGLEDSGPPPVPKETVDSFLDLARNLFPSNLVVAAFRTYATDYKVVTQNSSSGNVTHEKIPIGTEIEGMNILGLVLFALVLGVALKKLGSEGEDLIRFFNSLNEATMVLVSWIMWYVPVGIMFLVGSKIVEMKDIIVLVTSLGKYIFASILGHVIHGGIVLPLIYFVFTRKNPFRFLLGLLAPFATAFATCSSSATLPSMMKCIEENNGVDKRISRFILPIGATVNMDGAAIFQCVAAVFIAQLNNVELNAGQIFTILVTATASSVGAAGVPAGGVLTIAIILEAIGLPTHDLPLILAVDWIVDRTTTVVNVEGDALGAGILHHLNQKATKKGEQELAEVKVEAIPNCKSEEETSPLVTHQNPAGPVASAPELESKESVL
Protocol: as §1

normal rats = assay: sweep VEP visual acuity in normal rats; type: in vivo, rat; settings: 0.03-1.6 cpd, vs saline
Text: Sweep visually evoked potential (sweep VEP, sVEP), which was first introduced by Regan in 1973, has become an important technique to measure visual function. It is an objective method that can be used to assess visual acuity (VA) and contrast sensitivity (CS) in infants, young children and people with special needs. It was adapted to measure VA and CS in animals.
(§2) The recording electrodes were permanently implanted into the right visual cortex of Long Evans rats at lambda and 4.5 mm lateral to the midline, to a depth of 800 microns (layer III/iV). A reference electrode was placed epidurally on the midline 1.2 mm anterior to bregma. All recordings were conducted in awake rats starting at least two weeks after recovery from surgery. During recording the rats were alert and restrained in a home-made restrainer. They were habituated 2-3 times pre-surgery and at least three more times during seven days post-surgery. PowerDiva software from Anthony Norcia (Smith Kettlewell Institute of Visual Sciences) was used for data acquisition and analysis. Similar recording was performed in rabbits (FIG. 11) except the screw electrodes were place on top of the skull.
(§3) Stimuli were presented on a CRT computer monitor and consist of full-field sine-wave gratings at 80% contrast, reversing at 6.25 Hz. VEPs were elicited by horizontally oriented gratings. The display was positioned 24 cm in front of the rat and centered at the vertical meridian. Mean luminance was held constant at 20 cd. For sVEP in normal rats (slides 76-79), one stimulus presentation (one trial) consists of a spatial frequency sweep decreasing from 1.6 to 0.03 cycles/degree in 15 linear steps. A total of 20 trials were collected. Visual acuity (VA) thresholds were estimated using PowerDiva software. For fixed frequency stimulus in optic nerve crushed (ONC) rats (slides 80-83), the spatial frequency was fixed at 0.2 or 0.5 cycles/degree. Each trial lasts for 15 s. A total of 5 trials were collected and the signal powers were calculated.

[2] = test system: rats after blue-light treatment; assay: contrast sensitivity (sweep VEP) in blue-light treated rats; type: in vivo, rat
Protocol: as §2
One stimulus presentation (one trial) consists of a contrast sweep increasing from 2.5 to 70% in 15 log steps. A total of 20 to 30 trials were collected. Contrast thresholds (CT) were estimated using PowerDiva software. Contrast sensitivity (CS) is calculated as 1/CT.
Blue-light treatment damages photoreceptors in the retina, and has been proposed as a model of age related macular degeneration (ARMD; Wielgus et al., 2010).

[3] = test system: NMDA receptor-mediated excitatory postsynaptic currents (EPSCNMDA); assay: electrophysiological recording of NMDA receptor-mediated EPSCs from rat hippocampal slices; type: cell-based
Protocol: […] thick hippocampal slices were prepared from […] rats using Leica VT1000S-microtome. Slices were perfused with ACSF containing: 121 mM NaCl, 2.5 mM KCl, 2.0 mM Mg2SO4, 2.0 CaCl2, 1 mM NaH2PO4, 26.2 NaHCO3, and 11 mM glucose, which was equilibrated with 5% CO2/95% O2. Experiments were performed in a recording chamber on the stage of an Olympus BX-61wi microscope with infrared DIC optics for visualizing whole-cell patch-clamp recordings. EPSPs were recorded from CA1 pyramidal neurons by stimulating the Schaffer collateral-commissural pathway using a bipolar tungsten electrode. The recording pipettes were filled with regular ICM containing: 120 mM Cs-gluconate, 5 mM NaCl, 10 mM KCl, 0.1 mM CaCl2, 1 mM EGTA, 2 mM MgCl2, 10 mM HEPES, 2 mM Na-ATP, 2 mM Na2-phosphocreatine, and 0.25 mM Na-GTP, pH 7.3 (290 mOsm).
To measure NMDA-mediated EPSCs, extracellular Mg2SO4 was lowered to 0.2 mM and 2 μM NBQX and 100 μM picrotoxin were added in the ACSF. 1 μM 7-CKY (7-chlorokynurenic acid) was added to improve the sensitivity of […] to D-serine.

[4] = test system: long-term potentiation (LTP) in the primary visual cortex; assay: long-term potentiation (LTP) in primary visual cortex slices; type: cell-based; settings: rat visual cortex slice
Protocol: Long Term Potentiation (LTP) in primary visual cortex has been used as a cellular model for visual cortex plasticity and has functional consequences on visual evoked responses. NMDA receptors play a critical role in visual cortex LTP induction.
Following decapitation of the rat, the brain was rapidly removed and immersed in ice-cold artificial cerebrospinal fluid (ACSF) containing 124 mM NaCl, 3 mM KCl, 1.25 mM KH2PO4, 3.4 mM CaCl2, 2.5 mM MgSO4, 26 mM NaHCO3, and 10 mM D-glucose. A block of visual cortex was created by removing the frontal ⅔ portion of the brain and the cerebellum. Coronal visual cortex slices of 375 μm were prepared from adult Sprague Dawley (SD) rats using a vibratome (VT 1000 S; Leica). The slices were maintained in an interface recording chamber perfused with preheated ACSF. Slices were continuously perfused with this solution at a rate of 1.00-1.50 ml/min while the surface of the slices was exposed to warm, humidified 95% O2/5% CO2 and maintained at 31±1° C. Visual cortex slices were allowed to recover for 1 hr before recording began. […] This was repeated 2 additional times with a 1 minute intertrain interval, and the level of LTP was recorded for at least 30 min. Changes in amplitude of the synaptic response were used to measure the extent of LTP because it was determined to be the more consistent parameter than the slope of the response. […]

ONC rat = assay: fixed-frequency VEP in optic nerve crush (ONC) rats; type: in vivo; settings: 30 mg/kg, spatial frequency fixed at 0.2 cpd, vs saline
Protocol: as §2
as §3, with “Visual acuity (VA) thresholds were estimated using PowerDiva software. For fixed frequency stimulus in optic nerve crushed (ONC) rats (slides 80-83), the spatial frequency was fixed at 0.2 or 0.5 cycles/degree. Each trial lasts for 15 s.” left out

normal rabbits = assay: sweep VEP in normal rabbits; type: in vivo, rabbit; settings: 30 mg/kg, 0.03-1.6 cpd, vs saline
Protocol: as §2
as §3, with “Visual acuity (VA) thresholds were estimated using PowerDiva software. For fixed frequency stimulus in optic nerve crushed (ONC) rats (slides 80-83), the spatial frequency was fixed at 0.2 or 0.5 cycles/degree. Each trial lasts for 15 s.” left out

[5] = test system: rat hippocampal astrocytes; assay: [3H]D-serine transport into primary cultures of rat hippocampal astrocytes; type: cell-based; settings: two-component inhibition curves, FIG. 4
Protocol: as §1

ASCT2 = settings: literature range; cited from earlier work
ASCT1 [6] = target: T2, ASCT1; settings: one literature report; cited from earlier work

inhibition of [3H]L-serine transport (human ASCT2; ASCT2-expressing HEK cells, FIG. 6B): completely inhibited | inhibition of [3H]L-serine transport (ASCT1 [1]; ASCT1-expressing HEK cells, FIG. 6B): completely inhibited
SMILES: N[C@H](CO)C(=O)O [D-serine]
inhibition of [3H]L-serine transport (astrocytes): completely inhibited | transport of [3H]D-serine into ASCT1-expressing HEK cells (ASCT1 [1]; with and without extracellular sodium, FIG. 6A): transported into ASCT1-expressing HEK cells in a sodium-dependent manner

SMILES: N[C@H](C(=O)O)c1ccc(F)cc1 [L-4FPG, L-4-fluorophenylglycine]
visual function (visual acuity) assessed by sweep VEP (normal rats; 10 mg/kg, 40 min after injection, 10 mg/kg): enhance visual function | visual function (visual acuity) assessed by sweep VEP (normal rats; 10 mg/kg, 40 min after injection, listed as L-FPG, 10 mg/kg): enhances visual function | contrast sensitivity ([2]; rats fifty-three weeks after blue-light treatment, 10 mg/kg, 0.575 cpd, vs saline): improved the contrast sensitivity

duration of the potentiation effect on EPSCNMDA ([3]; 1000 μM, then control buffer): lasted for one hour
SMILES: N[C@H](C(=O)O)c1ccc(O)cc1 [L-4OHPG, L-4-hydroxyphenylglycine]
percentage increase in the amplitude of EPSCNMDA ([3]; 1000 μM, in presence of 1 μM 7-CKY, representative experiment): 22% | effect on NMDA receptor-mediated EPSCs ([3]; CA1 region of the hippocampus): dose-dependent effects; also recorded: potentiated | effect on LTP evoked by theta burst stimulation [4]: dose-dependently facilitates; also recorded: enhanced LTP in a concentration-dependent manner | effect on LTP with D-amino acid oxidase (D-AAO) in the perfusion medium ([4]; D-AAO): dependent on extracellular D-serine; also recorded: completely prevented | visual function (visual acuity) assessed by sweep VEP (normal rats; 30 mg/kg, 30 min after injection, 30 mg/kg): enhance visual function | visually-evoked signals (power of signals) from the visual cortex (ONC rat): visual enhancement effect; also recorded: enhances visually-evoked signals | visual function assessed by sweep VEP (normal rabbits): enhances visual function; also recorded: enhanced sweep VEP | contrast sensitivity ([2]; rats with damaged retinas following blue-light treatment, FIG. 12 as described in text): significant improvement in contrast sensitivity

SMILES: NC(=O)CC[C@H](N)C(=O)O [L-glutamine]
proportion of D-serine transport represented by the component for which the compound showed higher affinity [5]: approximately 40% | selectivity towards ASCT2 (human ASCT2; inhibition of [3H]L-serine transport, HEK cells expressing ASCT1 vs ASCT2): selectivity towards ASCT2; also recorded: selective for ASCT2 | reported affinity for ASCT2 (ASCT2): 23 to 70 µM

SMILES: O=C(O)[C@@H]1C[C@@H](O)CN1 [L-t-4OHPro, L-trans-4-hydroxyproline]
proportion of D-serine transport represented by the component for which the compound showed higher affinity [5]: approximately 60% | reported affinity for ASCT1 (ASCT1 [6]): high affinity | selectivity towards ASCT1 (ASCT1 [1]): selectivity towards ASCT1 | selectivity towards ASCT1 (ASCT1 [1]; listed as L-trans-4OHPro): selective for ASCT1
